# Laboratory results as given in the supplement of paper PMC11208160.
# Test: recombinant barcode read abundance after kanamycin selection (control-corrected) (log10(CPM+1)); higher = more efficient recombination; sequences stand for … in AGTGCAGAGAAAATCGGCCAGTTTTCTCTGCCTGCAGTCCGCATGCCGT…AGATTTATGCAGCGGACTGCCTTTCTCCCAAAGTGATAAACCGGACAGTATCATGGACCGGTTTTCCCGGTAATCCGTATTTGCAAGGTTGGTTTCACT; site = the 11-nt target
# In short: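 Oligos holding a promoter, target, barcode and the J23119-driven first 104 bases of the bridge RNA were Gibson-cloned into a vector that supplied the other 73 bp plus a T7-inducible recombinase. This library was co-electroporated with a donor plasmid into E. coli. Two replicates went on chloramphenicol/ampicillin LB agar (control) and two on chloramphenicol/ampicillin/kanamycin with 0.1 mM IPTG. Recombination efficiency is read from averaged, control-corrected barcode counts per million at recombinant junctions, reported as log10(CPM+1).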
# 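Also: IS621 recombinase and bridge RNA in Escherichia coli cells.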
row,Sequence,recombinant barcode read abundance (log10)
1,ACTGCGTCTTGGGTTCTAACCTGTTGCCT (site ACTCCGTCTAG),0.119
2,TGGTATGCTTGGGTTCTAACCTGTTGCCT (site TGGTATTCTAG),0
3,TGACGTCCTTGGGTTCTAACCTGTTGCTT (site TGACGTCCTAC),0.033
4,ACCAAATCTTGGGTTCTAACCTGTTGCTA (site ACCAAATCTTA),0.23
5,AGTAAGACTTGGGTTCTAACCTGTTGCCT (site AGTAAGACTAG),1.69
6,AGCGCGACTTGGGTTCTAACCTGTTGCCT (site AGGACGACTAG),0.338
7,TGTTCATCTTGGGTTCTAACCTGTTGCCT (site TGTTCATCTAG),0.00521
8,ATCAACCCTTGGGTTCTAACCTGTTGCCA (site ATCAACCCTTG),1.04
9,CTCGGATCTTGGGTTCTAACCTGTTGCTA (site CTCGGATCTAA),0.135
10,TGAAACGCTTGGGTTCTAACCTGTTGCTT (site TGAAACGCTAA),1.2
11,GTCTGATCTTGGGTTCTAACCTGTTGCCT (site GTCTGATCTAG),0.97
12,GGGGTAACTTGGGTTCTAACCTGTTGCCT (site GGGACAACTAG),0.0486
13,TGGATCACTTGGGTTCTAACCTGTTGCCT (site TGGAGCACTAG),0.0771
14,GTCTCTACTTGGGTTCTAACCTGTTGCGG (site GTCTCTACTCC),0.00855
15,AGCGCGACTTGGGTTCTAACCTGTTGCCT (site AGCGCGACTAG),0.381
16,CCGCTACCTTGGGTTCTAACCTGTTGCGG (site TCGCTAGCTCC),0.0965
17,CGGGACCCTTGGGTTCTAACCTGTTGCCT (site CGGGACCCTAG),1.26
18,TACGCCTCTTGGGTTCTAACCTGTTGCCT (site CACGCCTCTAG),0.164
19,TAGGCGCCTTGGGTTCTAACCTGTTGCTT (site TAGGCGCCTAA),1.03
20,TAGGCGCCTTGGGTTCTAACCTGTTGCTT (site TAGGCGCCTAT),0.0771
21,ACATGGGCTTGGGTTCTAACCTGTTGCCG (site ACATGGGCTCG),0.695
22,ACTACTACTTGGGTTCTAACCTGTTGCCT (site AATACTACTAG),0.227

row,Sequence,recombinant barcode read abundance (log10)
1,GGGAACACTTGGGTTCTAACCTGTTGCCA (site GGGCACACTTG),0.11
2,ATGAAGCCTTGGGTTCTAACCTGTTGCCT (site ATGAAGCCTAG),1.87
3,ATAAGGACTTGGGTTCTAACCTGTTGCTA (site ATAGGGACTTA),1.26
4,TGCTGTCCTTGGGTTCTAACCTGTTGCTT (site CAGACGACTTG),0.127
5,GTTCGTCCTTGGGTTCTAACCTGTTGCCA (site GTTCGTCCTTG),0.0879
6,TACCGGCCTTGGGTTCTAACCTGTTGCCT (site TACCGGCCTAG),0.141
7,CGCGTTGCTTGGGTTCTAACCTGTTGCCT (site CGCGTTGCTAG),0.48
8,AACTGAACTTGGGTTCTAACCTGTTGCCT (site AACTCAACTAG),0.056
9,TACGTGTCTTGGGTTCTAACCTGTTGCCT (site TAAGTGTCTAG),0.408
10,ACTTCTGCTTGGGTTCTAACCTGTTGCCT (site ACTTCACCTAG),0.0609
11,AGAACGTCTTGGGTTCTAACCTGTTGCCT (site AGAACGTCTAG),1.09
12,TATTCTCCTTGGGTTCTAACCTGTTGCAT (site TATTCTCCTAA),0.0409
13,TAGCCGACTTGGGTTCTAACCTGTTGCCT (site TAGCTGACTAG),0.0182
14,GGAGGTACTTGGGTTCTAACCTGTTGCCT (site GGAGGTACTAG),1.17
15,AGCTTAGCTTGGGTTCTAACCTGTTGCCG (site AGCTTAGCTGG),0.0372
16,GTTTCGGCTTGGGTTCTAACCTGTTGCCT (site GTTGCGGCTAG),0.101
17,CGTCATCCTTGGGTTCTAACCTGTTGCCT (site CGTCATCCTAG),0.0294
18,GAGGACTCTTGGGTTCTAACCTGTTGCCG (site GAGGACTCTCG),2.32
19,GTTTCGACTTGGGTTCTAACCTGTTGCCT (site GTTTCGTCTAG),0.173
20,TCTCTGCCTTGGGTTCTAACCTGTTGCCT (site TCTCCGCCTAG),1.15
21,GTATCCGCTTGGGTTCTAACCTGTTGCCA (site GTATCCGCTTG),1.55
22,CAGTTGGCTTGGGTTCTAACCTGTTGCCT (site CAGTTAGCTAG),0.04

row,Sequence,recombinant barcode read abundance (log10)
1,GGTAACCCTTGGGTTCTAACCTGTTGCGG (site GGTGACCCTCC),0.106
2,CAGTTGGCTTGGGTTCTAACCTGTTGCCT (site CAGTTTGCTAG),0.232
3,TCTCCGCCTTGGGTTCTAACCTGTTGCCT (site TCTCAGCCTAG),0.139
4,ACGAACGCTTGGGTTCTAACCTGTTGCCT (site ACGAGCGCTAG),0.085
5,CGATCATCTTGGGTTCTAACCTGTTGCCT (site CGGTCATCTAG),0.173
6,GGTGCATCTTGGGTTCTAACCTGTTGCTT (site ATATGTCCTTT),0.0325
7,ATCTTACCTTGGGTTCTAACCTGTTGCCT (site ATCTTACCTAG),0.681
8,ATTAACCCTTGGGTTCTAACCTGTTGCCT (site AATAACCCTAG),0.0681
9,GGCCGGGCTTGGGTTCTAACCTGTTGCGG (site GGCCGGGCTCC),0.906
10,AGGACTTCTTGGGTTCTAACCTGTTGCCT (site AGGATTACTAG),0.704
11,TCACGTCCTTGGGTTCTAACCTGTTGCCT (site TCACGTCCTAA),0.403
12,CGTCCTGCTTGGGTTCTAACCTGTTGCCT (site TGTCCTGCTAG),0.0535
13,GACGTACCTTGGGTTCTAACCTGTTGCCT (site GACCTACCTAG),0.133
14,TTGAGGCCTTGGGTTCTAACCTGTTGCCT (site GTGAGGCCTAG),0.0327
15,AATGGGTCTTGGGTTCTAACCTGTTGCCT (site AATGGGACTAG),0.0612
16,ACGTGCTCTTGGGTTCTAACCTGTTGCCT (site ATGTGCTCTAG),0.246
17,GAGCCACCTTGGGTTCTAACCTGTTGCCT (site GAGCCACCTAG),1.48
18,GACCGTCCTTGGGTTCTAACCTGTTGCGT (site GACCGTCCTAC),2.65
19,ACACGAGCTTGGGTTCTAACCTGTTGCAG (site TGCGATACTAA),0.326
20,GTCATGTCTTGGGTTCTAACCTGTTGCTC (site AGACGACCTCC),0.0394
21,TCTAAGCCTTGGGTTCTAACCTGTTGCAT (site TCTAACCCTAT),0.259
22,AATTGTCCTTGGGTTCTAACCTGTTGCCT (site AATTGTCCTAG),0.407

row,Sequence,recombinant barcode read abundance (log10)
1,GGGTACCCTTGGGTTCTAACCTGTTGCCT (site GGGTACCCTAG),1.99
2,AGCCTGTCTTGGGTTCTAACCTGTTGCCT (site AGCCTGGCTAG),0.143
3,ACAGCTTCTTGGGTTCTAACCTGTTGCCT (site ACAGCTACTAG),0.0838
4,CACGGTCCTTGGGTTCTAACCTGTTGCGG (site CACGGTCCTCC),3.16
5,AGGATATCTTGGGTTCTAACCTGTTGCCT (site ACGATATCTAG),0.14
6,GTCTGATCTTGGGTTCTAACCTGTTGCCT (site GTCTTATCTAG),0.186
7,ACAAGAGCTTGGGTTCTAACCTGTTGCCT (site ACTAGAGCTAG),0.133
8,TCTGGGGCTTGGGTTCTAACCTGTTGCGG (site TCTGGGGCTCC),2.61
9,TCCCCGGCTTGGGTTCTAACCTGTTGCCT (site TACCCGCCTAG),0.0487
10,ACCAATTCTTGGGTTCTAACCTGTTGCCT (site ACCAATTCTAG),0.483
11,TAGTACTCTTGGGTTCTAACCTGTTGCTT (site TAGTACTCTCA),0.0325
12,CGGCTCACTTGGGTTCTAACCTGTTGCCT (site CGGCTCACTAG),1.66
13,GAAATGACTTGGGTTCTAACCTGTTGCCT (site GCAATGACTAG),0.152
14,AGTCTACCTTGGGTTCTAACCTGTTGCCT (site AGTCTACCTAG),1.23
15,GTCCTATCTTGGGTTCTAACCTGTTGCAC (site GTCCTATCTGT),1.98
16,CGATCCACTTGGGTTCTAACCTGTTGCCT (site CGATCCACTAG),0.0891
17,AAGCCACCTTGGGTTCTAACCTGTTGCCT (site AAGCCACCTAG),2.3
18,TAAAAGGCTTGGGTTCTAACCTGTTGCCT (site TAAAAGTCTAG),0.142
19,CCGAAGCCTTGGGTTCTAACCTGTTGCCT (site CCGGAGCCTAG),0.144
20,TGTACCTCTTGGGTTCTAACCTGTTGCCT (site TGTACCTCTAG),0.522
